From patent US20140315972A1, “RS)-2-(2-oxo-4-phenylpyrrolidin-1-yl)acetamide compound having modulatory activity with a commensurate effect, pharmaceutical substance (variants) and its application, composition (variants) thereof” (priority 2011, published 2014) come the findings set out here.

Assay type in all cases: in vivo
In assay [1] the test system is rats. As to the kind of experiment: 14-day immobilization in antiorthostatic position (Ds), thymus, spleen, adrenal mass ratios Kt. The settings on record: Ds-conditions; for S/A: spleen/adrenals ratio (mg/100 g baseline body weight); for S/T: spleen/thymus ratio (mg/100 g baseline body weight); for T/A: thymus/adrenals ratio (mg/100 g baseline body weight).
Assay [2] deals with mice. As to the kind of experiment: Electric extremities pain stimulation, thresholds TA, TFC, TF.
Assay [3] concerns mice. As to the kind of experiment: Hypobaric hypoxia in pressure chamber, adult mice. As to conditions: for Duration of life: adult mice, hypobaric hypoxia.
The subject of assay [4] is rabbits. Briefly: Transcallosal stimulation induced potential (TSIP). The settings on record: Piracetam 300-500, Pyritinol 50-150, Phenotropil 25-300 mg/kg.

Marks after values point to notes of the source that are not given here.

Turning to `CN1C(=O)CN=C(c2ccccc2)c2cc(Cl)ccc21` [Seduxen], in assay [1] (2 mg/kg), the S/A was 7.6 ± 0.2, the S/T stood at 3.6 ± 0.1 and the T/A came out at 2.2 ± 1.4.

For the molecule `NC(=O)CN1CC(c2ccccc2)CC1=O` (stereo not drawn) [Fepiron (+)], in assay [1] (200 mg/kg), the S/A is reported as 11.3 ± 0.4, the S/T came out at 5.4 ± 0.1 and the T/A amounted to 2.1 ± 0.6.

With `NCC(CC(=O)O)c1ccccc1` (stereo not drawn) [phenibut], in assay [1] (50 mg/kg), the S/A came out at 10.2 ± 0.3, the S/T is 7.6 ± 0.2 and the T/A was 1.3 ± 0.6. For the same molecule, in assay [1] (100 mg/kg), the S/A is 8.0 ± 0.1, the S/T worked out at 4.7 ± 0.1 and the T/A is listed as 1.7 ± 0.1.

With `O=C1CC(c2ccccc2)CN1` (racemic) [Fepiron, 4(R,S)-feniilpirrolidin-2-one], the “TA (threshold of attention) vs control” value in assay [2] (25 mg/kg i.p.) is given as 0.0%; in assay [2] (50 mg/kg i.p.), “+5.0%”; in assay [2] (100 mg/kg i.p.), “+12.5 * %”. The “TFC (threshold of first cheep) vs control” value in assay [2] (25 mg/kg i.p.) was −5.7%; in assay [2] (50 mg/kg i.p.), “+11.4 * %”; in assay [2] (100 mg/kg i.p.) it was “+2.8%”. In addition, in assay [3] (100 mg/kg), the “increase of survival time vs control” value was found to be 47.8%. Also, the “effect on survival of the animals” value in assay [3] (25-50 mg/kg) is “did not affect the survival of the animals”. For the same molecule, the figures for the Duration of life in assay [3] (25 mg/kg), in assay [3] (50 mg/kg) and in assay [3] (100 mg/kg) were 2.3 ± 0.2^ min, 2.7 ± 0.2^ min and 3.4 ± 0.2 min, respectively. Besides, the S/A was found to be 11.3 ± 0.3 in assay [1] (50 mg/kg), 9.0 ± 0.3 in assay [1] (100 mg/kg) and 9.4 ± 0.4 in assay [1] (200 mg/kg). The S/T in assay [1] (50 mg/kg) was found to be 5.4 ± 0.3; in assay [1] (100 mg/kg), 5.4 ± 0.3; in assay [1] (200 mg/kg), 9.5 ± 0.9. In addition, the values for the T/A in assay [1] (50 mg/kg), in assay [1] (100 mg/kg) and in assay [1] (200 mg/kg) were 2.1 ± 0.2, 1.6 ± 0.3 and 1.0 ± 0.1, respectively.

Regarding `NCC(CC(=O)O)c1ccccc1` (stereo not drawn) [Phenibut (−)], in assay [1] (50 mg/kg), the S/A is 12.0 ± 0.3, the S/T was 4.8 ± 0.3 and the T/A turned out to be 2.5 ± 0.3.

In the case of `NCC(CC(=O)O)c1ccccc1` (stereo not drawn) [Phenibut (+)], in assay [1] (50 mg/kg), the S/A amounted to 13.0 ± 0.1, the S/T is listed as 4.8 ± 0.1 and the T/A is recorded as 2.7 ± 0.1.

In the case of `NC(=O)CN1CC(c2ccccc2)CC1=O` (stereo not drawn) [Fepiron (−)], in assay [1] (200 mg/kg), the S/A was determined as 9.0 ± 0.5, the S/T was 4.9 ± 0.7 and the T/A was determined as 1.9 ± 0.3.

For the molecule `Cc1ncc(CSSCc2cnc(C)c(O)c2CO)c(CO)c1O` [Pyritinol], in assay [4], the “TSIP P1 + N1 amplitude” value is “+ (amplitude increase by less than 50%)”, the “TSIP component N1 amplitude” value was “+ (amplitude increase by less than 50%)”, the “TSIP component P1 amplitude” value is listed as “+ (amplitude increase by less than 50%)” and the “TSIP component P2 amplitude” value was “+ (amplitude increase by less than 50%)”.
